Where two headings read alike, the source gives them in different places.
Legend:
MHCC97H cells = assay: Assay for inhibiting the proliferation of MHCC97H cells (CCK-8); assay type: cell-based
Experimental: (§1) In particular, the method of the assay of small molecular compounds for inhibiting cell proliferation is as follows: • 1. Cells cultured to a logarithmic growth phase (adherent cells need to be digested with trypsin and neutralized) were taken, pipetted evenly, transferred to a 15 mL centrifuge tube, and centrifuged at 1000 rpm at room temperature for 4 minutes; • 2. The supernatant was discarded; 5 mL of complete medium was added and pipetted evenly; 10 μL of cell suspension was taken out, mixed well with 10 μL of 0.4% trypan blue, and counted under a cell counter; the proportion of living cells was ensured to be above 90%; • 3. 80 μL of cell suspension per well was seeded into a 96-well plate according to the conditions shown in the attached table, and cultured overnight; in the outer 36 wells of the 96-well plate, no cells were added but only sterile water was added; only the inner 60 wells were used for cell assay and control; • 4. 5×compound dilution: the compounds were serially diluted 3-fold to obtain a total of 9 concentrations; 80-fold overall dilution was completed with complete medium, the resulting concentration was 5 times the final drug concentration, and DMSO concentration was 1.25%; • 5. 20 μL of the corresponding compounds with different concentration gradients were added to each well of assay wells of the 96-well plate; 20 μL of complete medium was added to positive and negative control wells and shaken well; and the final concentration of DMSO in each well was 0.25%; • 6. After 72 hours of incubation, 10 μL of CCK-8 reagent was added to each well and further incubated at 37° C. for 1-2 hours; and the OD value was read at 450 nm; • 7. Cell survival rate (%)=[(As−Ab)/(Ac−Ab)]*100% • As: Assay well (medium containing cells, CCK-8, compound), • Ac: Control well (medium containing cells, CCK-8), • Ab: Blank well (CCK-8, medium without cell and compound), • 8. The values were imported into Graphpad Prism 5 software for IC50 calculation.

EBC1 cells = assay: Assay for inhibiting the proliferation of EBC1 cells (CCK-8); assay type: cell-based
Experimental: as §1

Molecule O=C(Nc1ccc(Oc2ncnc3cc(OCCCN4CCOCC4)c4c(c23)OCCO4)c(F)c1)c1cccn(-c2ccc(F)cc2)c1=O [Example 4, N-(3-fluoro-4-((5-(3-morpholinopropoxy)-2,3-dihydro-[1,4]dioxino[2,3-f]quinazolin-10-yl)oxy)phenyl)-1-(4-fluorophenyl)-2-oxo-1,2-dihydropyridine-3-carboxamide] has an IC50 (MHCC97H cells; Homo sapiens) of at most 50 nM and an IC50 (EBC1 cells; Homo sapiens, EBC-1) of at most 50 nM.

COc1ccn(-c2ccc(F)cc2)c(=O)c1C(=O)Nc1ccc(Oc2ncnc3cc(OCCCN4CCOCC4)c4c(c23)OCCO4)c(F)c1 [Example 5, N-(3-fluoro-4-((5-(3-morpholinopropoxy)-2,3-dihydro-[1,4]dioxino[2,3-f]quinazolin-10-yl)oxy)phenyl)-1-(4-fluorophenyl)-4-methoxy-2-oxo-1,2-dihydropyridine-3-carboxamide] gave an IC50 (MHCC97H cells; Homo sapiens) of 50 to 200 nM and an IC50 (EBC1 cells; Homo sapiens, EBC-1) of at most 50 nM.

With CCOc1ccn(-c2ccc(F)cc2)c(=O)c1C(=O)Nc1ccc(Oc2ncnc3cc(OCCCN4CCOCC4)c4c(c23)OCCO4)c(F)c1 [Example 6, N-(3-fluoro-4-((5-(3-morpholinopropoxy)-2,3-dihydro-[1,4]dioxino[2,3-f]quinazolin-10-yl)oxy)phenyl)-1-(4-fluorophenyl)-4-ethoxy-2-oxo-1,2-dihydropyridine-3-carboxamide] the IC50 (MHCC97H cells; Homo sapiens) was 50 to 200 nM and the IC50 (EBC1 cells; Homo sapiens, EBC-1) was at most 50 nM.

COc1cc2nccc(Oc3ccc(NC(=O)c4cn(C)c(=O)n(-c5ccc(F)cc5)c4=O)cc3F)c2c2c1OCCO2 [Example 13, N-(3-fluoro-4-((5-methoxy-2,3-dihydro-[1,4]dioxino[2,3-f]quinolin-10-yl)oxy)phenyl)-3-(4-fluorophenyl)-1-methyl-2,4-dioxo-1,2,3,4-tetrahydropyrimidine-5-carboxamide] showed an IC50 (MHCC97H cells; Homo sapiens) of 50 to 200 nM and an IC50 (EBC1 cells; Homo sapiens, EBC-1) of 50 to 200 nM.

With COc1cc2nccc(Oc3ccc(NC(=O)c4cccn(-c5ccc(F)cc5)c4=O)cc3F)c2c2c1OCCO2 [Example 17, N-(3-fluoro-4-((5-methoxy-2,3-dihydro-[1,4]dioxino[2,3-f]quinolin-10-yl)oxy)phenyl)-1-(4-fluorophenyl)-2-oxo-1,2-dihydropyridine-3-carboxamide] the IC50 (MHCC97H cells; Homo sapiens) was at most 50 nM and the IC50 (EBC1 cells; Homo sapiens, EBC-1) was at most 50 nM.

COc1cc2nccc(Oc3ccc(NC(=O)c4c(OC)ccn(-c5ccc(F)cc5)c4=O)cc3F)c2c2c1OCCO2 [Example 18, N-(3-fluoro-4-((5-methoxy-2,3-dihydro-[1,4]dioxino[2,3-f]quinolin-10-yl)oxy)phenyl)-1-(4-fluorophenyl)-4-methoxy-2-oxo-1,2-dihydropyridine-3-carboxamide] was tested, and the IC50 (MHCC97H cells; Homo sapiens) was at most 50 nM and the IC50 (EBC1 cells; Homo sapiens, EBC-1) was at most 50 nM.

Work on CCOc1ccn(-c2ccc(F)cc2)c(=O)c1C(=O)Nc1ccc(Oc2ccnc3cc(OC)c4c(c23)OCCO4)c(F)c1 [Example 19, N-(3-fluoro-4-((5-methoxy-2,3-dihydro-[1,4]dioxino[2,3-f]quinolin-10-yl)oxy)phenyl)-1-(4-fluorophenyl)-4-ethoxy-2-oxo-1,2-dihydropyridine-3-carboxamide] yielded an IC50 (MHCC97H cells; Homo sapiens) of at most 50 nM and an IC50 (EBC1 cells; Homo sapiens, EBC-1) of at most 50 nM.

COc1ccn(-c2ccc(F)cc2)c(=O)c1C(=O)Nc1ccc(Oc2ccnc3cc(OCCCN4CCOCC4)c4c(c23)OCCO4)c(F)c1 [Example 21, N-(3-fluoro-4-((5-(3-morpholinopropoxy)-2,3-dihydro-[1,4]dioxino[2,3-f]quinolin-10-yl)oxy)phenyl)-1-(4-fluorophenyl)-4-methoxy-2-oxo-1,2-dihydropyridine-3-carboxamide] showed an IC50 (MHCC97H cells; Homo sapiens) of at most 50 nM and an IC50 (EBC1 cells; Homo sapiens, EBC-1) of at most 50 nM.

In the case of CCOc1ccn(-c2ccc(F)cc2)c(=O)c1C(=O)Nc1ccc(Oc2ccnc3cc(OCCCN4CCOCC4)c4c(c23)OCCO4)c(F)c1 [Example 22, N-(3-fluoro-4-((5-(3-morpholinopropoxy)-2,3-dihydro-[1,4]dioxino[2,3-f]quinolin-10-yl)oxy)phenyl)-1-(4-fluorophenyl)-4-ethoxy-2-oxo-1,2-dihydropyridine-3-carboxamide], the IC50 (MHCC97H cells; Homo sapiens) is reported as at most 50 nM and the IC50 (EBC1 cells; Homo sapiens, EBC-1) is reported as at most 50 nM.

For COc1cn(-c2ccc(F)cc2C)nc1C(=O)Nc1ccc(Oc2ccnc3cc(OCCCN4CCOCC4)c4c(c23)OCCO4)c(F)c1 [Example 27, 1-(4-fluoro-2-methylphenyl)-N-(3-fluoro-4-((5-(3-morpholinopropoxy)-2,3-dihydro-[1,4]dioxino[2,3-f]quinolin-10-yl)oxy)phenyl)-4-methoxy-1H-pyrazole-3-carboxamide], the IC50 (MHCC97H cells; Homo sapiens) was 50 to 200 nM and the IC50 (EBC1 cells; Homo sapiens, EBC-1) was 50 to 200 nM.

Work on O=C(Nc1ccc(Oc2ccnc3cc(OCCCN4CCCCC4)c4c(c23)OCCO4)c(F)c1)c1cccn(-c2ccc(F)cc2)c1=O [Example 31, N-(3-fluoro-4-((5-(3-(piperidin-1-yl)propoxy)-2,3-dihydro-[1,4]dioxino[2,3-f]quinolin-10-yl)oxy)phenyl)-1-(4-fluorophenyl)-2-oxo-1,2-dihydropyridine-3-carboxamide] yielded an IC50 (MHCC97H cells) of at most 50 nM and an IC50 (EBC1 cells) of at most 50 nM.

COc1ccn(-c2ccc(F)cc2)c(=O)c1C(=O)Nc1ccc(Oc2ccnc3cc(OCCCN4CCCCC4)c4c(c23)OCCO4)c(F)c1 [Example 32, N-(3-fluoro-4-((5-(3-(piperidin-1-yl)propoxy)-2,3-dihydro-[1,4]dioxino[2,3-f]quinolin-10-yl)oxy)phenyl)-1-(4-fluorophenyl)-4-methoxy-2-oxo-1,2-dihydropyridine-3-carboxamide] was tested, and the IC50 (MHCC97H cells; Homo sapiens) was 50 to 200 nM and the IC50 (EBC1 cells; Homo sapiens, EBC-1) was at most 50 nM.

With CCOc1ccn(-c2ccc(F)cc2)c(=O)c1C(=O)Nc1ccc(Oc2ccnc3cc(OCCCN4CCCCC4)c4c(c23)OCCO4)c(F)c1 [Example 33, N-(3-fluoro-4-((5-(3-(piperidin-1-yl)propoxy)-2,3-dihydro-[1,4]dioxino[2,3-f]quinolin-10-yl)oxy)phenyl)-1-(4-fluorophenyl)-4-ethoxy-2-oxo-1,2-dihydropyridine-3-carboxamide] the IC50 (MHCC97H cells; Homo sapiens) was at most 50 nM and the IC50 (EBC1 cells; Homo sapiens, EBC-1) was at most 50 nM.

COCCOc1cc2nccc(Oc3ccc(NC(=O)c4cccn(-c5ccc(F)cc5)c4=O)cc3F)c2c2c1OCCO2 [Example 34, N-(3-fluoro-4-((5-(2-methoxyethoxy)-2,3-dihydro-[1,4]dioxino[2,3-f]quinolin-10-yl)oxy)phenyl)-1-(4-fluorophenyl)-2-oxo-1,2-dihydropyridine-3-carboxamide] showed an IC50 (MHCC97H cells; Homo sapiens) of at most 50 nM and an IC50 (EBC1 cells; Homo sapiens, EBC-1) of at most 50 nM.

COCCOc1cc2nccc(Oc3ccc(NC(=O)c4c(OC)ccn(-c5ccc(F)cc5)c4=O)cc3F)c2c2c1OCCO2 [Example 35, N-(3-fluoro-4-((5-(2-methoxyethoxy)-2,3-dihydro-[1,4]dioxino[2,3-f]quinolin-10-yl)oxy)phenyl)-1-(4-fluorophenyl)-4-methoxy-2-oxo-1,2-dihydropyridine-3-carboxamide] gave an IC50 (MHCC97H cells; Homo sapiens) of at most 50 nM and an IC50 (EBC1 cells; Homo sapiens, EBC-1) of at most 50 nM.

Work on CCOc1ccn(-c2ccc(F)cc2)c(=O)c1C(=O)Nc1ccc(Oc2ccnc3cc(OCCOC)c4c(c23)OCCO4)c(F)c1 [Example 36, N-(3-fluoro-4-((5-(2-methoxyethoxy)-2,3-dihydro-[1,4]dioxino[2,3-f]quinolin-10-yl)oxy)phenyl)-1-(4-fluorophenyl)-4-ethoxy-2-oxo-1,2-dihydropyridine-3-carboxamide] yielded an IC50 (MHCC97H cells; Homo sapiens) of at most 50 nM and an IC50 (EBC1 cells; Homo sapiens, EBC-1) of at most 50 nM.

COc1cc2nccc(Oc3ccc(NC(=O)c4cn(CCCO)c(=O)n(-c5ccc(F)cc5)c4=O)cc3F)c2c2c1OCCO2 [Example 99, N-(3-fluoro-4-((5-methoxy-2,3-dihydro-[1,4]dioxino[2,3-f]quinolin-10-yl)oxy)phenyl)-3-(4-fluorophenyl)-1-(3-hydroxypropyl)-2,4-dioxo-1,2,3,4-tetrahydropyrimidine-5-carboxamide] was tested, and the IC50 (MHCC97H cells; Homo sapiens) was 50 to 200 nM and the IC50 (EBC1 cells; Homo sapiens, EBC-1) was at most 50 nM.
